Data from US20150291625A1 (PFIZER INC., priority 2012, published 2015).
Several values for one entry are separate records, joined by “and”; a condition that tells them apart may be missing. Identical values can stand only once. Counter-ions that a name gives are not always drawn. Like-named read-outs stand apart in the source and are kept apart here.

Columns and labels:
D1 [1] = biological target: T1, D1 (Homo sapiens, UniProt P21728); assay: Human D1 receptor binding assay ([3H]-SCH23390 competition)
T1 sequence (P21728 whole entry): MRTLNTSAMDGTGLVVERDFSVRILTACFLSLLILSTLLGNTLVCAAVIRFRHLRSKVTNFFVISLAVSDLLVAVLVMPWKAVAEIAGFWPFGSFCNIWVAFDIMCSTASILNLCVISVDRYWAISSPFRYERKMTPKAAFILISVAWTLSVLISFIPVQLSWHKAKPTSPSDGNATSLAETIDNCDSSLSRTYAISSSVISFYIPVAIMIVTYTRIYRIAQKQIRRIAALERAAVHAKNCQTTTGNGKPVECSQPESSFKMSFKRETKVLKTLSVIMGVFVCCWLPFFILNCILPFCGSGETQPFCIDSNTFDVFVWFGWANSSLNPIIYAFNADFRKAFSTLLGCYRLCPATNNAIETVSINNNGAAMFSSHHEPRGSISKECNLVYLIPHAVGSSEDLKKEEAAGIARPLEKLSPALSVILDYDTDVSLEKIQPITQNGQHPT
Procedure: D1 binding assays were performed using over-expressing LTK human cell lines. […] These ligand and tissue concentrations were used in time course studies to determine linearity and equilibrium conditions for binding. Binding was at equilibrium with the specified amount of tissue in 30 minutes at 37° C. […] The pellet was resuspended in assay buffer (50 mM Tris (pH 7.4@ RT) containing 4 mM MgSO4 and 0.5 mM EDTA). […] After a 30 minute incubation period at 37° C., assay samples were rapidly filtered through Unifilter-96 GF/B PEI-coated filter plates and rinsed with 50 mM Tris buffer (pH 7.4 at 4° C.). […] Ki values were calculated according to the Cheng-Prusoff equation.

D1 [2] = biological target: T1, D1; assay: D1 cAMP HTRF assay (HEK293T/hD1#1 stable cell line); assay type: cell-based; design: expressed in transfected cells
Outline: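 Cells from a stable human D1 HEK293T line in PBS/0.5 μM IBMX were incubated with compound for 30 min at room temperature, and cAMP was then detected by competitive HTRF (1 h, room temperature). A cAMP standard curve converted ratios to cAMP, giving ratio-based and cAMP-based EC50 values.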

[3] = Human D1 Receptor Binding, Ki (nM), Geometric mean of 2-4 determinations, a: >=5 determinations, d: single determination

SMILES | Ki (D1 [1]; [3]) [nM] | EC50 (D1 [2]) | Ki (D1 [1]; read-out: Human D1 Receptor Binding, Ki (nM), Geometric mean of 2-4 determinations, a: >=5 determinations, d: single determination) [nM]
Cc1cc(Oc2nccc3occc23)ccc1-c1c(C)ncnc1N1CCCC1CO (stereo not drawn) [Example 187, (1-{5-[4-(furo[3,2-c]pyridin-4-yloxy)-2-methylphenyl]-6-methylpyrimidin-4-yl}pyrrolidin-2-yl)methanol, trifluoroacetate salt] | 65.7 | 984 nM | 
Cc1cc(Oc2nccc3occc23)ccc1-c1c(C)nc(O)c2nccn12 (single isomer, unassigned) [Example 106, 5-[4-(furo[3,2-c]pyridin-4-yloxy)-2-methylphenyl]-6-methylimidazo[1,2-a]pyrazin-8-ol] | 106 | 1310 nM | 
Cc1ncc2nccn2c1-c1ccc(Oc2nccc3occc23)cc1C(F)(F)F [Example 100, 5-[4-(furo[3,2-c]pyridin-4-yloxy)-2-(trifluoromethyl)phenyl]-6-methylimidazo[1,2-a]pyrazine] | 11 | 112 nM and 580 nM | 
Cc1nc2cnccc2n1-c1ccc(Oc2nccc3occc23)cc1Cl [Example 39, 1-[2-chloro-4-(furo[3,2-c]pyridin-4-yloxy)phenyl]-2-methyl-1H-imidazo[4,5-c]pyridine] | 91 | 415 nM | 
Cc1cc(Oc2nccc3occc23)ccc1-c1c(C)ncnc1N1CC=CC1 [Example 167, 4-{4-[4-(2,5-dihydro-1H-pyrrol-1-yl)-6-methylpyrimidin-5-yl]-3-methylphenoxy}furo[3,2-c]pyridine, trifluoroacetate salt] | 24.4 | 354 nM | 
Cc1ncnc(C)c1-c1ccc(Oc2nccc3occc23)c2cn(C)nc12 [Example 144, 4-{[7-(4,6-dimethylpyrimidin-5-yl)-2-methyl-2H-indazol-4-yl]oxy}furo[3,2-c]pyridine] | 246 | 3490 nM | 
Cc1cc(Oc2nccc3occc23)ccc1-c1c(C)ncn1C [Example 102, 4-[4-(1,4-dimethyl-1H-imidazol-5-yl)-3-methylphenoxy]furo[3,2-c]pyridine] | 84.6 | 714 nM | 
Cc1cc(Oc2nccc3occc23)ccc1-c1c(C)cnc(=O)n1C [Example 124, 6-[4-(furo[3,2-c]pyridin-4-yloxy)-2-methylphenyl]-1,5-dimethylpyrimidin-2(1H)-one] | 29.4 | 188 nM | 
Cc1nc2cnccc2n1-c1ccc(Oc2nccc3occc23)cc1 [Example 31, 1-[4-(furo[3,2-c]pyridin-4-yloxy)phenyl]-2-methyl-1H-imidazo[4,5-c]pyridine] | 316 | 1030 nM and 1190 nM | 
Cc1ncccc1-c1ccc(Oc2nccc3occc23)cc1F [Example 92, 4-[3-fluoro-4-(2-methylpyridin-3-yl)phenoxy]furo[3,2-c]pyridine] | 25.2 | 746 nM | 
Cc1ncnc(C)c1-c1ccc(Oc2nccc3occc23)c2ccncc12 [Example 116, 8-(4,6-dimethylpyrimidin-5-yl)-5-(furo[3,2-c]pyridin-4-yloxy)isoquinoline] | 481 | 3440 nM | 
COc1cc(Oc2nccc3occc23)ccc1-c1c(C)ncnc1C [Example 71, 4-[4-(4,6-dimethylpyrimidin-5-yl)-3-methoxyphenoxy]furo[3,2-c]pyridine] | 50.5 | 298 nM and 965 nM | 
Cc1cc(Oc2nccc3occc23)ccc1-c1nc2nccn2cc1C [Example 111, 7-[4-(furo[3,2-c]pyridin-4-yloxy)-2-methylphenyl]-6-methylimidazo[1,2-a]pyrimidine] | 41.2 | 335 nM | 
CCOCC(=O)Nc1cc(Oc2nccc3occc23)ccc1-c1cccc2nccn12 [Example 47, 2-ethoxy-N-[5-(furo[3,2-c]pyridin-4-yloxy)-2-(imidazo[1,2-a]pyridin-5-yl)phenyl]acetamide] | 302 | 935 nM | 
Cc1cc(Oc2nccc3occc23)ccc1-c1c(C)nc(C#N)c2nccn12 [Example 207, 5-[4-(furo[3,2-c]pyridin-4-yloxy)-2-methylphenyl]-6-methylimidazo[1,2-a]pyrazine-8-carbonitrile] | 161 | 796 nM | 
O=C(NC1CCC1)c1cc(Oc2nccc3occc23)ccc1-c1cccc2nccn12 [Example 46, N-cyclobutyl-5-(furo[3,2-c]pyridin-4-yloxy)-2-(imidazo[1,2-a]pyridin-5-yl)benzamide, trifluoroacetate salt] | 316 | 2120 nM | 
Cc1cc(Oc2nccc3occc23)ccc1-c1cncnc1C [Example 58, 4-[3-methyl-4-(4-methylpyrimidin-5-yl)phenoxy]furo[3,2-c]pyridine] | 160 | 900 nM and 1110 nM | 
Cc1ccc2nccn2c1-c1ccc(Oc2nccc3occc23)cc1O [Example 153, 5-(furo[3,2-c]pyridin-4-yloxy)-2-(6-methylimidazo[1,2-a]pyridin-5-yl)phenol] | 5.99 | 51.8 nM | 
Cc1cc(Oc2nccc3occc23)ccc1-c1c(C)ncnc1N1CCC(CO)C1 (stereo not drawn) [Example 179, (1-{5-[4-(furo[3,2-c]pyridin-4-yloxy)-2-methylphenyl]-6-methylpyrimidin-4-yl}pyrrolidin-3-yl)methanol, formate salt] | 47.2 | 921 nM | 
Cc1cc(Oc2nccc3occc23)ccc1-c1cccc2nccn12 [Example 174, 4-[4-(imidazo[1,2-a]pyridin-5-yl)-3-methylphenoxy]furo[3,2-c]pyridine] |  | 200 nM | 37.9
Cc1cc(Oc2nccc3occc23)ccc1-c1c(C)ncnc1N(C)C [Example 165, 5-[4-(furo[3,2-c]pyridin-4-yloxy)-2-methylphenyl]-N,N,6-trimethylpyrimidin-4-amine, trifluoroacetate salt] | 15.6 | 182 nM | 
Cc1cc(Oc2nccc3occc23)ccc1-c1c(C)ncc(=O)n1C (single isomer, unassigned) [Example 120, (+)-6-[4-(furo[3,2-c]pyridin-4-yloxy)-2-methylphenyl]-1,5-dimethylpyrazin-2(1H)-one] | 30.9 | 124 nM | 
Cc1ncc2nccn2c1-c1ccc(Oc2nccc3occc23)cc1 [Example 172, 5-[4-(furo[3,2-c]pyridin-4-yloxy)phenyl]-6-methylimidazo[1,2-a]pyrazine] | 32.7 | 408 nM | 
Cc1cc(Oc2nccc3occc23)ccc1-c1nc(N)cnc1C [Example 53, 6-[4-(furo[3,2-c]pyridin-4-yloxy)-2-methylphenyl]-5-methylpyrazin-2-amine, trifluoroacetate salt] | 173 | 953 nM | 
Cc1cc(Oc2nccc3occc23)ccc1-c1c(C)cnc2nccn12 (single isomer, unassigned) [Example 146, 5-[4-(furo[3,2-c]pyridin-4-yloxy)-2-methylphenyl]-6-methylimidazo[1,2-a]pyrimidine] | 49.7 | 324 nM | 
Cc1nccnc1-c1ccc(Oc2nccc3occc23)cc1OCc1nc(C2CC2)no1 [Example 188, 4-{3-[(3-cyclopropyl-1,2,4-oxadiazol-5-yl)methoxy]-4-(3-methylpyrazin-2-yl)phenoxy}furo[3,2-c]pyridine, formate salt] | 72.5 | 464 nM and 447 nM | 
Cc1ncnc(C)c1-c1cc(F)c(Oc2nccc3occc23)cc1F [Example 139, 4-[4-(4,6-dimethylpyrimidin-5-yl)-2,5-difluorophenoxy]furo[3,2-c]pyridine] | 119 | 287 nM | 
